{
  "source": "patent US5744492A",
  "about": "“Method for inhibiting angiogenesis” (United States of America, priority 1994, dated 1998)",
  "key": {"HUVECs [1]": {"system": "HUVECs", "assay": "HUVEC vascular tube formation on Matrigel", "format": "cell-based, human", "details": "24 hr", "protocol": "(§1) Human umbilical vein endothelial cells (H 930) were generously supplied by Dr. Tom Maciag, American Red Cross (Gaithersburg, Md., USA) and were used between passages 9 and 14 to avoid senescence. HUVECs were grown on fibronectin-coated tissue culture plastic (200 μg/150 mm dish) in complete medium (Medium 199 (M-199) containing 5 U/mL preservative-free heparin, 25.5 μg/mL ECGS, 10% fetal bovine serum and 100 U/mL penicillin, 100 μg/mL streptomycin, and 0.25 μg/mL fungizone).\nAfter 12-24 hours, this rearrangement leads to the development of a network of tube-like structures that resemble capillaries. See, Kubota, et al., J. Cell Biol. 107:1589-1598 (1988).\nMatrigel is a solution of murine basement membrane enriched for laminin and collagen type IV and has been used previously as a permissive substrate for vessel formation. See, Albini, et al., Int. J. Oncol. 1:723-730 (1992). The effect of compound 1 on in vitro tube formation was tested using this system. Individual wells of 24 well plates were coated with a 300 μL aliquot of concentrated Matrigel solution (10 mg/mL) and allowed to solidify for 1 hr at 37° C. Compound 1 (1.0, 10 or 20 μM) or DMSO control (0.1%) was added to Matrigel and to the culture media. HUVECs (50,000 cells/well) were incubated on the Matrigel in complete medium for 24 hr then evaluated by phase contrast microscopy and photographed."}, "HUVECs [2]": {"system": "HUVECs", "assay": "HUVEC proliferation (crystal violet), 10% serum with ECGS", "format": "cell-based, human", "details": "for IC50: Homo sapiens, HUVEC, 10% serum with ECGS, n=3", "protocol": "as §1\nThe effect of compound 1 on HUVEC proliferation was examined over a 5 day period of culture. Cell monolayers were incubated with increasing concentrations of compound 1 and evaluated incrementally for growth inhibition.\nGrowth inhibition of HUVECs by compound 1 was measured by crystal violet nuclear stain. Briefly, 50,000 cells were seeded per well in 24 well plates using complete medium in the presence of increasing concentrations of compound 1 (0.01-10 μM) or DMS0 vehicle control (0.1%) and cultures were incubated for 24-120 hours. After incubation, cells were washed carefully with Dulbecco's phosphate-buffered saline (DPBS), fixed and stained with 0.5% crystal violet in 20% methanol. Excess stain was removed with water, the cell monolayers were air-dried, and then bound stain was eluted with a 1:1 solution of 0.1N sodium citrate (pH 4.2): 100% ethanol. Optical density of the eluted samples was determined at 540 nm and the results were expressed as percent of DMSO control cell growth. Data are expressed as percentage of control value and are presented as mean±SEM (n=3)."}, "HUVECs [3]": {"system": "HUVECs", "assay": "bFGF-stimulated HUVEC growth in low serum (1% FCS), crystal violet", "format": "cell-based", "details": "Homo sapiens, bFGF 10 ng/ml", "protocol": "as §1\nGrowth inhibition of HUVECs by compound 1 was measured by crystal violet nuclear stain. Briefly, 50,000 cells were seeded per well in 24 well plates using complete medium in the presence of increasing concentrations of compound 1 (0.01-10 μM) or DMS0 vehicle control (0.1%) and cultures were incubated for 24-120 hours. […] Optical density of the eluted samples was determined at 540 nm and the results were expressed as percent of DMSO control cell growth. Data are expressed as percentage of control value and are presented as mean±SEM (n=3).\nTo evaluate the effect of bFGF on HUVECs growth, cells were plated in low serum medium (1% FCS) in the presence of 10 ng/ml of bFGF and increasing concentrations of compound 1. At the indicated time, cells were fixed, stained, and quantitated as described above."}, "β-actin": {"system": "β-actin", "assay": "Northern blot, β-actin probe for quantitation of RNA load in HUVECs", "format": "cell-based, human", "details": "24 hr", "protocol": "as §1\nHUVECs were grown to confluence as described. Fresh complete medium with test compounds was added to confluent cells for an additional 24 hr incubation. bFGF (10 ng/mL), and/or compound 1 (10 μM) or DMSO control (0.1%) were added as indicated below. Total RNA was isolated by the guanidine isothiocyanate/CsCl method. Aliquots of RNA (7.5 μg) were separated on 1% agarose/formaldehyde gels, passively transferred to GeneScreen Plus membrane in 20X SSC, then cross-linked with ultraviolet light. Blots were prewashed for 1 hr at 42° C. in 1M NaCl, 10 mM Tris, 1 mM EDTA, 0.1% SDS and then hybridized overnight at 42° C. with a formamide-containing buffer (hybridization buffer final: 50% formamide, 4X SSC, 10 mM Tris pH 7.5, IX Denhardt solution, 0.2% SDS, 125 μg/ml salmon sperm DNA) with a random-primed 300 bp insert for MMP-2 (gift of Dr. William Stetler-Stevenson, Laboratory of Pathology, NCI). Blots were washed under stringent conditions then exposed to film. After removal of MMP-2 probe, blots were rehybridized with β-actin probe for quantitation of the RNA load. Results were quantitated by densitometric evaluation of the autoradiographs.\nLane 1 corresponds to the mRNA from HUVECs treated with DMSO (control). Lanes 2-4 show the mRNA isolated from HUVECs treated with compound 1 (10 μM) alone, compound 1 (10 μM) and bFGF (10 ng/mL), bFGF (10 ng/mL) alone, respectively."}, "[4]": {"system": "chick chorioallantoic membrane", "assay": "Chick chorioallantoic membrane (CAM) angiogenesis assay", "format": "in vivo", "details": "48 hr", "protocol": "The chick chorioallantoic or yolk sac membrane (CAM) assays for angiogenesis are important in vivo models of microvessel formation. […] Briefly, fertilized chick embryos with the yolk intact were removed from their shells on day 3 of development and incubated at 37° C."}},
  "data": [
    {"molecule": "NC(=O)c1nnn(Cc2cc(Cl)c(C(=O)c3ccc(Cl)cc3)c(Cl)c2)c1N", "note": "[Compound 1, 5-amino-1-(4-(4-chlorobenzoyl)-3,5-dichlorobenzyl)1,2,3-triazole-4-carboxamide]", "values": [
      {"measurement": "inhibition of tube formation (in words)", "setting": "HUVECs [1]; 20 μM, similar when omitted from the Matrigel", "value": "more striking inhibition of tube formation"},
      {"measurement": "appearance of multicellular tubes vs DMSO control (in words)", "setting": "HUVECs [1]; compound in Matrigel and media, similar when only in media", "value": "less extensive, thinner, foreshortened, and less cellular"},
      {"measurement": "inhibition of endothelial cell proliferation (in words)", "setting": "HUVECs [2]; 0.01-10 μM, 24, 72 and 120 hrs", "value": "dose-dependent but not time-dependent inhibition"},
      {"measurement": "IC50", "setting": "HUVECs [2]; 24 h, 1 day of culture", "value": "1.31 ± 0.03", "unit": "µM"},
      {"measurement": "IC50", "setting": "HUVECs [2]; 72 h, 3 days of culture", "value": "2.14 ± 0.03", "unit": "µM"},
      {"measurement": "IC50", "setting": "HUVECs [2]; 120 h, 5 days of culture", "value": "2.08 ± 0.01", "unit": "µM"},
      {"measurement": "inhibition at 10 µM", "setting": "HUVECs [3]; 72 h, 3 days from seeding, P2<0.01", "value": 25, "unit": "%"},
      {"measurement": "inhibition at 10 µM", "setting": "HUVECs [3]; 120 h, 5 days from seeding, P2<0.005", "value": 45, "unit": "%"},
      {"measurement": "β-actin (densitometer)", "setting": "β-actin; Control + Compound 1, 10 μM", "value": 127, "unit": "Densitometer units"},
      {"measurement": "β-actin (densitometer)", "setting": "β-actin; bFGF 10 ng/mL + Compound 1 10 μM", "value": 210, "unit": "Densitometer units"},
      {"measurement": "% Inhibition (capillary formation in vivo)", "setting": "[4]; 10 μM", "value": 55, "unit": "%"},
      {"measurement": "Eggs with avascular zones/total", "setting": "[4]; 10 μM", "value": "19/34"},
      {"measurement": "embryos with large avascular zone", "setting": "[4]; 10 μM", "value": 55, "unit": "%"},
      {"measurement": "% Inhibition (capillary formation in vivo)", "setting": "[4]; 20 μM", "value": 67, "unit": "%"},
      {"measurement": "Eggs with avascular zones/total", "setting": "[4]; 20 μM", "value": "20/30"},
      {"measurement": "embryos with large avascular zone", "setting": "[4]; 20 μM", "value": 67, "unit": "%"},
      {"measurement": "angiogenesis inhibitory effect (in words)", "setting": "[4]; 10 or 20 μM", "value": "dose-dependent"}
    ]}
  ]
}
